Reference: US20250025480A1, “METHODS AND PHARMACEUTICAL COMPOSITIONS FOR THE TREATMENT OF CHOROIDAL NEOVASCULARISATION” (INSERM (INSTITUT NATIONAL DE LA SANTE ET DE LA RECHERCHE …, priority 2015, published 2025)

How the values were obtained:
Assay type in all cases: in vivo
[1] = tested on: Transcript levels of MCP1, IL6, IL1β, TNFα, VEGF-A and PIGF; assay: Quantitative PCR of rat neuroretina and RPE-choroid complex 3 days after laser; conditions: day 3, subcutaneous spironolactone
Method: (§1) After anesthesia and dilation of the pupils, coverslips were positioned on the cornea as a contact glass. For rats, six to eight burns were performed 2 to 3-disk diameters away from the papillae with an Argon laser (532 nm) mounted on a slit lamp (170 mW, 0.1 second and 50 μm). For mice, four laser burns were induced at the 3, 6, 9 and 12 o'clock positions around the optic disc (250 mW, 0.05 second and 50 μm). The presence of a bubble witnessed the rupture of Bruch's membrane and confirmed the success of the laser impact.
Treatments were introduced only in rat model of CNV. After laser photocoagulation, rats were divided into 6 groups: 1) non-treated; 2) daily subcutaneous injection of spironolactone diluted in oliver oil and DMSO (25 mg/kg/day) until sacrifice; 3) daily subcutaneous injection of vehicle (oliver oil and DMSO) until sacrifice; 4) intravitreous injection (IVT) of anti-rat VEGF (1.5 μg/μl, 5 μl, RnD system, Lille, France) only at day 0 (Couturier A et al. Anti-vascular endothelial growth factor acts on retinal microglia/macrophage activation in a rat model of ocular inflammation. Mol Vis 2014;20:908-20); 5) IVT of spironolactone-loaded PLGA MPs only at day 0 (2.2 μg/μl, 5 μl, obtained from team of Pr R. Herrero-Vanrell, Complutense University of Madrid). Considering the ex vivo release profile of Spi-MPs, the daily dose of spironolactone released in the vitreous is estimated at 18 μM; 6) IVT of blank PLGA MPs (5 μl) only at day 0.
Three days after laser induction, rat neuroretinas and RPE-choroid-sclera complexes were carefully dissected from enulcated eyes and snap-frozen in liquid nitrogen and stored at −80° C. until use. Total RNA was isolated from tissues using RNeasy Plus Mini Kit (Qiagen, Courtaboeuf, France) according to the manufacturer's instructions. First-strand complementary DNA was synthesized from total mRNA using random primers (Life Technologies, Cergy Pontoise, France) and SuperScript II reverse transcriptase (Life Technologies). Transcript levels of MR, MCP1, IL6, IL1β, TNFα, VEGF-A and PIGF were analyzed by quantitative real-time PCR performed in 7500 Real-Time PCR System (Applied Biosystems, Foster City, CA, USA) with either SYBR Green or TaqMan detection.

[2] = tested on: choroidal neovascularisation (CNV) induced by laser in rat eyes; assay: CNV volume quantification on RPE-choroid flatmounts (FITC-GSL I-Isolectin B4) in rat laser-induced CNV
Method: (§2) All experiments were performed in accordance with the European Communities Council Directive 86/609/EEC and approved by local ethical committees (Ce5/2012/113). Six to eight-week old male Brown Norway rats from Janvier breeding Center (Le Genest-Saint-Isle, France) were used to create rat model of CNV. Vascular endothelial cell-specific MR knock-out mice (EC-MR-KO) and monocyte/macrophage-specific MR knock-out mice (MC-MR-KO) were generated in C57BL/6 genetic background mice and were obtained from team of Dr F. Jaisser (UMRS 1138, team 1). EC-MR-KO mice were created by mating transgenic mice expressing Cre recombinase in endothelial cells with mice harbouring MR-floxed alleles (Berger S et al. Loss of limbic mineralocorticoid receptor impairs behavioural plasticity. PNAS USA 2006). MC-MR-KO mice were obtained by mating mice expressing Cre recombinase in monocytes/macrophages (Clausen BE et al. Conditional gene targeting in macrophages and granulocytes using LysMcre mice. Trangenic Research 1999) with mice harbouring MR-floxed alleles. […]
The deepest focal plane in which the surrounding choroidal vascular network connecting to the lesion could be identified was judged to be the floor of the CNV lesion. The area of CNV-related fluorescence on each horizontal section was measured using ImageJ software. […]

[3] = tested on: macrophage/microglial recruitment; assay: IBA1 immunofluorescence count of activated macrophage/microglial cells in laser burns on RPE-choroid flatmounts; conditions: rat, day 3 after laser, subcutaneous spironolactone; P<0.05
Method: as §1
Treatments were introduced only in rat model of CNV. After laser photocoagulation, rats were divided into 6 groups: 1) non-treated; 2) daily subcutaneous injection of spironolactone diluted in oliver oil and DMSO (25 mg/kg/day) until sacrifice; 3) daily subcutaneous injection of vehicle (oliver oil and DMSO) until sacrifice; 4) intravitreous injection (IVT) of anti-rat VEGF (1.5 μg/μl, 5 μl, RnD system, Lille, France) only at day 0 (Couturier A et al. Anti-vascular endothelial growth factor acts on retinal microglia/macrophage activation in a rat model of ocular inflammation. […]
Three days after laser induction (peak of macrophage infiltration), rat RPE-choroidal flatmounts were also prepared for immunofluorescence. […] IBAI positive macrophage/microglial cells were counted on stained laser lesions. The average cell number/per impact/rat eye was calculated.

[4] = tested on: choroidal neovascularisation (CNV) induced by laser in rat eyes; assay: Fluorescein angiography grading of vascular leakage in rat model of laser-induced CNV; conditions: 14 days after laser, versus laser control, spironolactone subcutaneous 25 mg/kg/day, anti-VEGF intravitreous at day 0
Method: as §2, with “alleles. Animals were kept in pathogen-free conditions with food, water and litter and housed in a 12-hour light/12-hour dark cycle.” for “alleles.”
FA was performed 14 days (in rats) or 10 days (in mice) after laser induction. […] Early and late phase angiograms were recorded 1-3 and 5-7 min respectively after fluorescein injection. […]

[5] = RPE-choroid complex and neuroretina

CC(=O)S[C@@H]1CC2=CC(=O)CC[C@]2(C)[C@H]2CC[C@@]3(C)[C@@H](CC[C@@]34CCC(=O)O4)[C@H]12 [spironolactone, 17-hydroxy-7α-mercapto-3-oxo-17α-pregn-4-ene-21-carboxylic acid γ-lactone acetate]
expression of PIGF at RNA level [1, 5]: not regulated | expression of VEGF-A at RNA level [1, 5]: not regulated | laser-induced gene expression of IL1β ([1]; RPE-choroid complex): down-regulates | laser-induced gene expression of IL6 ([1]; RPE-choroid complex): down-regulates | laser-induced gene expression of MCP1 ([1]; RPE-choroid complex): down-regulates | laser-induced gene expression of TNFα ([1]; RPE-choroid complex): down-regulates | laser-induced gene expression of IL1β ([1]; neuroretina): down-regulates | laser-induced gene expression of MCP1 ([1]; neuroretina): down-regulates | laser-induced gene expression of TNFα ([1]; neuroretina): down-regulates | CNV volume compared to laser control ([2]; RPE/choroid flatmounts 16 days after laser, spironolactone subcutaneous, anti-VEGF intravitreous, P<0.01): significant decrease | CNV development ([2]; systemic administration of spironolactone): limits the CNV development | activated IBA1 positive macrophage/microglia in laser burns versus laser control [3]: significant fewer | decrease in angiographic score (grading of vascular leakage on FA) [4]: −45%
